Data set [1] concerns lactic acid induced peripheral circulatory disturbance in rats. As to the kind of experiment: Rat model of lactic acid induced peripheral circulatory disturbance (lesion score). It is filed as in vivo. Particulars: for Score of lesion: mean ± S.E. The source says: Peripheral arterial obstructions including clinical arteriosclerosis obliterans (ASO) are, in common, chronic diseases, which often cause ulcer or necrosis in lower limbs, and lesions are worsened by arterial thrombotic infarcts upstream of the lesions. Therefore, the target of the treatment for the above diseases is to inhibit the progress and to eliminate the ischemic symptoms. Antiplatelet drugs and anticoagulants are often used therefor. […] ID3016511 (Compound 115), which is one of the compounds according to the present invention, is selected as an example and administered daily to a rat model of lactic acid induced peripheral circulatory disturbance used as an animal model of peripheral arterial obstruction to examine the drug's therapeutic effect.
13-week old Wister male rats were used in test groups of 10 rats. Each rat was fixed in a face-up position under anesthesia by 40 mg/kg of intraperitoneally administered pentobarbital sodium. The left femoral region was then incised and 0.1 ml of 5% lactic acid solution was administered into the femoral artery. Adhesives were applied dropwise at the lactic acid administered site for blood stanching. Thereafter, a penicillin G solution was added dropwise to prevent infections and the incised part was sutured. […] The solvent and the test solution were orally administered. Administration was carried out 2 hours before lactic acid administration and, thereafter, twice a day at an interval of at least 7 hours for 13 days repeatedly. […] The positive control material was administered 3 hours before the lactic acid administration, and it was repeatedly orally administered twice a day for 13 days in the same way as the above test compound. The progress of lesion on legs and feet was observed 3, 7, and 14 days after the lactic acid administration and the results were scored from 0 to 4 based on the following criteria:
1: nigrities limited to the tiptoe
2: nigrities reaching toe
Each toe was scored and the sum of scores for each toe was determined as a lesion index. When the damage reached the sole, 5 points were added.
The significant difference between the control group and the test material group was assayed by the non-parametric Dunnet's test. The significant difference between the control group and the positive control material group was assayed by the non-parametric Wilcoxon's test.

Data set [2] concerns Human brain tumor cells (U87 MG). As to the kind of experiment: Inhibitory activity against BrdU incorporation, LPA-stimulated brain tumor cells. It is filed as cell-based. The note with it: LPA 3 μM, FIG. 2A. Here is the method:
(§1) Human brain tumor cells (U87 MG) and ovarian carcinoma cells (SKOV3) suspended in serum-free DMEM were plated on a 96-well plate. 24 hours later, Compound 115 and LPA (3 μM) were added and the mixture was cultured for 16 hours, followed by the BrdU addition. Culture was continued for 3 hours from the addition of BrdU. Thereafter, the incorporation of BrdU into the cells was assayed based on the absorbance at 450 nm using the Cell proliferation ELISA system (RPN250, Amersham LIFE SCIENCE).
(Uptake of a labelled nucleoside into DNA is a usual measure of proliferation.)

Data set [3] in a line: Solubility in water (remark). It is filed as physicochemical. The note with it: white powder.
The subject of another data set is Human EDG-2/HepG2 cells. As to the kind of experiment: Inhibitory activity on LPA-accelerated [3H] thymidine incorporation (cell proliferation). It is filed as cell-based. The note with it: 50% inhibition of LPA-induced increase of [3H] thymidine incorporation. An outline of the steps:
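HepG2 cells stably overexpressing human EDG-2, serum-starved 24 h, received compound immediately before LPA and were cultured 16 h, followed by 8 h [3H]thymidine labelling. LPA-stimulated proliferation was taken as incorporation in LPA wells minus LPA-free wells.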

In the next data set the target is T1, human EDG-2 (Homo sapiens, UniProt Q92633).
T1 construct: cDNA of the cloned human EDG-2 was introduced into pEFneo, which is an animal expression vector; expressed in transfected cells; host or cells: HepG2
T1 sequence (Q92633 whole entry): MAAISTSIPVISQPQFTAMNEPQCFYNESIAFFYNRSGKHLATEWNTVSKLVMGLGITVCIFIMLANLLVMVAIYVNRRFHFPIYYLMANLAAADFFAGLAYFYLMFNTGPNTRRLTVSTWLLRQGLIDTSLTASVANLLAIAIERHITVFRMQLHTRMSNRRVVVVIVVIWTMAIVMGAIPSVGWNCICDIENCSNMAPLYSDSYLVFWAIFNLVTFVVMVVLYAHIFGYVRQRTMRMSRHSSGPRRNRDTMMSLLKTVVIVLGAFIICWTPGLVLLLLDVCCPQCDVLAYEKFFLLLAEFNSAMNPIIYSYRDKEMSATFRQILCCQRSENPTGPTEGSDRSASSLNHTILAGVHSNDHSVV
As to the kind of experiment: Inhibitory activity on LPA-induced elevation of intracellular Ca2+ level. It is filed as cell-based. The note with it: 50% inhibition of elevation of intracellular Ca2+ level by LPA, human EDG-2/HepG2 cells, fura-2. The method in brief: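 Stably transfected HepG2 cells loaded with fura-2/AM (45 min, room temperature) in 0.1% BSA HEPES buffer. Test compound added before LPA, and the LPA-evoked intracellular Ca2+ rise measured fluorometrically. IC50 for inhibition derived.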

Data set [4] concerns ovarian carcinoma cells (SKOV3). As to the kind of experiment: Inhibitory activity against BrdU incorporation, LPA-stimulated ovarian carcinoma cells. It is filed as cell-based, human. The note with it: SKOV3, LPA 3 μM, FIG. 2B. The procedure: as §1

Usually IC50 stands for the concentration that gives 50% inhibition. A high value points to weaker potency. In the case of `COC(=O)CCSCc1ccc(-c2onc(C)c2NC(=O)OC(C)c2ccccc2Cl)cc1` (centres unmarked) [Compound 115, Methyl 3-({4-[4-({[1-(2-chlorophenyl)ethoxy]carbonyl}amino)-3-methyl-5-isoxazolyl]-benzyl}sulfanyl)propanoate], the Score of lesion in data set [1] (20 mg/kg twice/day p.o., 3 days after lactic acid injection) came to 2.6 ± 0.8; in data set [1] (20 mg/kg twice/day p.o., 7 days after lactic acid injection), 4.3 ± 1.0; in data set [1] (20 mg/kg twice/day p.o., 14 days after lactic acid injection), 6.9 ± 1.4; in data set [1] (60 mg/kg twice/day p.o., 7 days after lactic acid injection), 1.9 ± 0.5. For the same compound, in data set [1] (dose of 60 mg/kg), the “Progress of lesions in the feet and legs” value is “inhibited the progress of lesions”. The “Progress of lesion versus control group” value in data set [1] (repeated administration of 20 mg/kg for 14 days) is “equivalent level of progress with the control group”. In addition, the “Concentration at which proliferation (BrdU incorporation) was inhibited in a concentration dependent manner” value in data set [2] and in data set [4] was at least 0.3 µM throughout. The “Solubility in water” value in data set [3] is “poor solubility in water”. For the same compound, the figures for the IC50 with Human EDG-2/HepG2 cells and at human EDG-2 were 10 to 30 nM and 1000 to 3000 nM, respectively.

(Values after US6964975B2, “Isoxazole and thiazole compounds and use thereof as medicine” (Kirin Beer Kabushiki Kaisha, priority 2000, dated 2005).)
